Test results published in publication PMC9643456, “Matching amino acids membrane preference profile to improve activity of antimicrobial peptides” (Communications Biology, 2022).
Square brackets hold non-standard residues; d marks the D form. Peptide text beside a SMILES is read from it.

Legend:
DMPC:DMPG liposomes = experiment: Isothermal titration calorimetry, peptide-liposome interaction; assay type: binding; settings: ITC, PBS, 37 °C; run shown in Fig. 2a or run not numbered
Method: Liposomes were prepared using 1,2-dimyristoyl-sn-glycero-3-(phospho-rac-(1-glycerol)) (sodium salt) (DMPG) (Avanti, Alabama, USA); 1,2-dimyristoyl-sn-glycero-3-phosphocholine (DMPC) (Avanti); and cholesterol (Sigma, Darmstadt, Germany) were used. Bacterial membrane mimic DMPC/DMPG (7/3) unilamellar vesicles (LUVs), and mammalian membrane mimic DMPC/cholesterol (10/1) vesicles with 100-nm diameters were prepared using the freeze-thaw and extrusion method. Lipids were mixed and dissolved in methanol in round-bottomed flasks then evaporated and freeze-dried overnight, yielding a thin layer of lipid covering the glass wall. PBS was added to the lipid layer, after which the PBS-lipid layer was vortexed then frozen in liquid nitrogen and thawed in 50 °C water repeatedly until no visible layer remained. LiposoFast Liposome Factory Basic unit with stabilizer (Avestin, Ottawa, Canada) was then used to extrude the liposomes 50 times through a polycarbonate membrane filter (pore diameter, 100 nm; filter diameter, 0.75 inches) (Avestin). For circular dichroism, isothermal titration calorimetry, tryptophan fluorescence, and dynamic light scattering experiments, liposomes were reconstructed and resuspended in PBS (Welgene Inc, Gyeongsangbuk-do, Korea).
PC/PG liposome stock solutions and peptide solutions were diluted in PBS and degassed for 30 min. Peptide solutions (2 ml, 40 μM) were then loaded into a VP-ITC MicroCalorimeter (MicroCal, Northampton, USA). Liposome samples (600 μl, 2000 μM) were injected into the VP-ITC using a syringe. Measurement parameters were as follows: cell temperature, 37 °C; total injections, 30; reference power, 10; initial delay, 300; stirring speed, 300; edit mode, 10.0/12.0/200/2. Liposome solution (10 μl) was injected into the peptide solution 30 times. Each experiment was performed in duplicate. The results were calculated using MicroCal analysis.

MDR P. aeruginosa = experiment: microbe, parasite or virus in culture
In short: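 MIC was read by eye as the lowest peptide concentration leaving no visible turbidity. Peptide and mid-log cells (final 5 × 10^5 CFU/ml) were combined in cation-adjusted Mueller–Hinton broth containing 50 mg/L calcium and 10 mg/L magnesium and incubated 18 h at 37 °C.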

A. baumannii strains = experiment: microbe, parasite or virus in culture

CC[C@@H](C)[C@@H](NC(=O)[C@@H](Cc1c[nH]c2ccccc12)NC(=O)[C@H](NC(=O)[C@@H](CC(C)C)NC(=O)[C@H](N)Cc1c[nH]c2ccccc12)C(C)C)C(=O)N[C@H](Cc1c[nH]c2ccccc12)C(=O)N[C@H](CCCNC(=N)N)C(=O)N[C@H](CCCNC(=N)N)C(=O)N[C@H](CCCNC(=N)N)C(N)=O [WCopW29] (H-[dW][dL][dV][dW][dI][dW][dR][dR][dR]-NH2)
5 µM: MIC at different cfu/ml, MDR P. aeruginosa (MDR P. aeruginosa; 2 × 10^8 cfu/ml (x400)) | MIC at killing kinetics condition, P. aeruginosa CCARM 2180 (MDR P. aeruginosa; 5 x 10^5 cfu/ml, PBS) | MIC in 0.2% albumin and 0.01% AcOH added CLSI standard condition, MDR P. aeruginosa (MDR P. aeruginosa; CAMHB plus 0.2% bovine serum albumin and 0.01% acetic acid, values marked * in Table 2)
2: Number of A. baumannii strains at MIC (μM) 2.5 (A. baumannii strains; of 30 strains)
0.63 µM: MIC, A. baumannii ATCC BBA 1605 (A. baumannii strains; strains, 18 h) | MIC, A. baumannii Isolated strain 80 (A. baumannii strains; strains, 18 h) | MIC, A. baumannii Isolated strain 86 (A. baumannii strains; strains, 18 h)
25: Number of A. baumannii strains at MIC (μM) 1.25 (A. baumannii strains; of 30 strains)
2.5 µM: MIC, A. baumannii ATCC 17978 (A. baumannii strains; strains, 18 h) | MIC, A. baumannii Isolated strain 3 (A. baumannii strains; strains, 18 h)
1.25 µM: MIC, A. baumannii Isolated strain 1 (A. baumannii strains; strains, 18 h) | MIC, A. baumannii Isolated strain 6 (A. baumannii strains; strains, 18 h) | MIC, A. baumannii Isolated strain 10 (A. baumannii strains; strains, 18 h) | MIC, A. baumannii Isolated strain 14 (A. baumannii strains; strains, 18 h) | MIC, A. baumannii Isolated strain 15 (A. baumannii strains; strains, 18 h) | MIC, A. baumannii Isolated strain 16 (A. baumannii strains; strains, 18 h) | MIC, A. baumannii Isolated strain 19 (A. baumannii strains; strains, 18 h) | MIC, A. baumannii Isolated strain 22 (A. baumannii strains; strains, 18 h) | MIC, A. baumannii Isolated strain 39 (A. baumannii strains; strains, 18 h) | MIC, A. baumannii Isolated strain 44 (A. baumannii strains; strains, 18 h) | MIC, A. baumannii Isolated strain 66 (A. baumannii strains; strains, 18 h) | MIC, A. baumannii Isolated strain 68 (A. baumannii strains; strains, 18 h) | MIC, A. baumannii Isolated strain 69 (A. baumannii strains; strains, 18 h) | MIC, A. baumannii Isolated strain 71 (A. baumannii strains; strains, 18 h) | MIC, A. baumannii Isolated strain 76 (A. baumannii strains; strains, 18 h) | MIC, A. baumannii Isolated strain 82 (A. baumannii strains; strains, 18 h) | MIC, A. baumannii Isolated strain 89 (A. baumannii strains; strains, 18 h) | MIC, A. baumannii Isolated strain 102 (A. baumannii strains; strains, 18 h) | MIC, A. baumannii Isolated strain 127 (A. baumannii strains; strains, 18 h) | MIC, A. baumannii Isolated strain 141 (A. baumannii strains; strains, 18 h) | MIC, A. baumannii Isolated strain 144 (A. baumannii strains; strains, 18 h) | MIC, A. baumannii Isolated strain 147 (A. baumannii strains; strains, 18 h) | MIC, A. baumannii Isolated strain 152 (A. baumannii strains; strains, 18 h) | MIC, A. baumannii KCCM 40203 (A. baumannii strains; strains, 18 h) | MIC, A. baumannii NCCP 14654 (A. baumannii strains; strains, 18 h)
3: Number of A. baumannii strains at MIC (μM) 0.63 (A. baumannii strains; of 30 strains)
0: Number of A. baumannii strains at MIC (μM) 5 (A. baumannii strains; of 30 strains) | Number of A. baumannii strains at MIC (μM) 10 (A. baumannii strains; of 30 strains) | Number of A. baumannii strains at MIC (μM) ≤0.31 (A. baumannii strains; of 30 strains) | Number of A. baumannii strains at MIC (μM) ≥20 (A. baumannii strains; of 30 strains)
18.2 cal/mol deg: ΔS (DMPC:DMPG liposomes)
